From patent publication US20230065953A1, “NOVEL HETEROARYL-TRIAZOLE COMPOUNDS AS PESTICIDES” (Bayer Aktiengesellschaft, priority 2019, published 2023)

Legend:
Format in all cases: in vivo
[1] = tested on: fall armyworm larvae (Spodoptera frugiperda); test: Spodoptera frugiperda spray test (maize leaf sections); details: 168 h
Procedure, shortened: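 Percent kill of Spodoptera frugiperda caterpillars read at day 7. Larvae placed on dried Zea mays leaf pieces previously sprayed with test preparation, made from acetone plus DMF and diluted with emulsifier-containing water (1000 ppm).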

[2] = tested on: green peach aphid (Myzus persicae); test: Myzus persicae oral test; details: 120 h
Procedure: Myzus persicae—oral test • Solvent: 100 parts by weight acetone
To produce a suitable preparation of active compound, 1 part by weight of active compound is mixed with the stated amount of solvent, and the concentrate is diluted with water to the desired concentration. 50 μL compound solution is filled in microtiter plates and 150 μL IPL41 insect medium (33%+15% sugar) is added to obtain a total volume of 200 μL per well. Afterwards the plates are sealed with parafilm through which a mixed population of the green peach aphid (Myzus persicae) can suck on the compound preparation.
After 5 days mortality in % is determined. 100% means all aphids have been killed and 0% means none of the aphids have been killed.

[3] = tested on: adult unfed cat fleas (Ctenocephalides felis); test: Ctenocephalides felis oral test; details: 48 h
Procedure: Ctenocephalides felis—Oral Test
(§1) Solvent: dimethyl sulfoxide
To produce a suitable preparation of active compound, 10 mg of active compound are dissolved in 0.5 mL solvent, and the concentrate is diluted with cattle blood to the desired concentration.
Approximately 20 adult unfed cat fleas (Ctenocephalides felis) are placed in flea chambers. The blood chamber, sealed with parafilm on the bottom, are filled with cattle blood supplied with compound solution and placed on the gauze covered top of the flea chamber, so that the fleas are able to suck the blood. The blood chamber is heated to 37° C. whereas the flea chamber is kept at room temperature.
After 2 days mortality in % is determined. 100% means all the fleas have been killed; 0% means none of the fleas have been killed.

[4] = tested on: Rhipicephalus microplus larvae (strain Parkhurst, resistant against synthetic pyrethroids); test: Rhipicephalus (Boophilus) microplus in-vitro contact test, larval cattle tick; details: 5 μg/cm^2 (=500 g/ha), after 48 hours, read-out: efficacy (larvae dead or moribund)
Procedure, shortened: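 Efficacy is read at 48 h from negative geotactic behaviour after larvae are patted to the tube bottom, expressed as percentage dead or moribund. Larvae (20-50) sit in glass tubes whose walls carry an evaporated acetone film of compound (900 ppm corresponds to 5 μg/cm^2), kept at 27° C., 85% relative humidity.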

[5] = tested on: adult brown dog ticks (Rhipicephalus sanguineus); test: Rhipicephalus sanguineus in-vitro contact test with adult brown dog ticks; details: 5 μg/cm^2 (=500 g/ha), after 48 hours, read-out: efficacy (ticks dead or moribund)
Procedure: Rhipicephalus sanguineus—In-Vitro Contact Tests with Adult Brown Dog Ticks
(§2) 9 mg compound is solved in 1 mL acetone and diluted with acetone to the desired concentration. 250 μL of the test solution is filled in 25 mL glass test tubes and homogeneously distributed on the inner walls by rotation and tilting on a shaking device (2 h at 30 rpm). With a compound concentration of 900 ppm, an inner surface of 44.7 cm^2 and a homogeneous distribution, a dose of 5 μg/cm^2 is achieved.
After the solvent has evaporated, each test tube is filled with 5-10 adult brown dog ticks (Rhipicephalus sanguineus), closed with a perforated lid and incubated in a lying position at room temperature and relative humidity. After 48 hours efficacy is determined. The ticks are patted on the ground of the tubes and are incubated on a heating plate at 45-50° C. for at most 5 minutes. Immotile or uncoordinated moving ticks, which are not able to escape the heat by climbing upwards, are marked as dead or moribund.
An efficacy of 100% means all ticks are dead or moribund; 0% means no ticks are dead or moribund.

[6] = tested on: adult engorged female ticks (Rhipicephalus microplus); test: Rhipicephalus (Boophilus) microplus injection test; details: 168 h, 4 μg/animal, egg deposition after 7 days, read-out: efficacy (infertile eggs)
Procedure: Rhipicephalus (Boophilus) Microplus—Injection Test
as §1
To produce a suitable preparation of active compound, 10 mg of active compound are dissolved in 0.5 mL solvent, and the concentrate is diluted with solvent to the desired concentration.
Five adult engorged female ticks (Rhipicephalus microplus) are injected with 1 μL compound solution into the abdomen. The ticks are transferred into replica plates and incubated in a climate chamber.
After 7 days egg deposition of fertile eggs is monitored. Eggs where fertility is not visible are stored in a climate chamber till hatching after about 42 days. An efficacy of 100% means all eggs are infertile; 0% means all eggs are fertile.

[7] = tested on: larvae of the banded cucumber beetle (Diabrotica balteata); test: Diabrotica balteata spray test; details: 168 h, 100 g/ha (=32 μg/well), wheat seeds, after 7 days, read-out: efficacy (seedling growth)
Procedure, shortened: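 Efficacy in % was read 7 days after infesting with 10-20 larvae per unit. Before infestation, 1-day-germinated wheat seedlings (5 per well) were sprayed with the active ingredient, formulated in acetone and dimethylformamide plus emulsifier and diluted with water containing emulsifier.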

[8] = tested on: adult cat fleas (Ctenocephalides felis); test: Ctenocephalides felis in-vitro contact test, adult cat flea; details: 5 μg/cm^2 (=500 g/ha), after 48 hours
Procedure: Ctenocephalides felis—In-Vitro Contact Tests Adult Cat Flea
as §2
After the solvent has evaporated, each test tube is filled with 5-10 adult cat fleas (Ctenocephalides felis), closed with a perforated lid and incubated in a lying position at room temperature and relative humidity. After 48 hours efficacy is determined. The fleas are patted on the ground of the tubes and are incubated on a heating plate at 45-50° C. for at most 5 minutes. Immotile or uncoordinated moving fleas, which are not able to escape the heat by climbing upwards, are marked as dead or moribund.
An efficacy of 100% means all fleas are dead or moribund; 0% means no fleas are dead or moribund.

[9] = tested on: adult mosquitoes Aedes aegypti strain MONHEIM; test: Aedes aegypti test (AEDSAE surface treatment & contact assay); details: 24 hours after contact, read-out: efficacy (mortality); for mortality at 4 mg/m2: surface concentration 4 mg/m^2, 30 min exposure; for mortality at 20 mg/m2: surface concentration 20 mg/m^2, 30 min exposure
Procedure: Aedes aegypti test (AEDSAE surface treatment & contact assay) • Solvent: Aceton+2000 ppm rapeseed oil methyl ester (RME)
In order to produce a sufficient, active ingredient containing solution it is necessary to solve the test compound in the solvent-mix (acetone at 2 mg/ml/RME 2000 ppm). This solution is pipetted onto a glazed tile and after evaporation of the acetone, adult mosquitoes of the species Aedes aegypti strain MONHEIM are placed onto the dried surface. The exposure time is 30 minutes.
(§3) Mortality in percent (%) is determined 24 hours after contact of the insects to the treated surface. 100% mortality means that all tested insects are dead, whereas 0% means that no insect died.

[10] = tested on: adult flies Musca domestica strain WHO-N; test: Musca domestica test (MUSCDO surface treatment & contact assay); details: 24 hours after contact, read-out: efficacy (mortality); for mortality at 20 mg/m2: surface concentration 20 mg/m^2, 30 min exposure; for mortality at 4 mg/m2: surface concentration 4 mg/m^2, 30 min exposure
Procedure: Musca domestica Test (MUSCDO Surface Treatment & Contact Assay) • Solvent: Aceton+2000 ppm rapeseed oil methyl ester (RME)
In order to produce a sufficient, active ingredient containing solution it is necessary to solve the test compound in the solvent-mix (acetone at 2 mg/ml/RME 2000 ppm). This solution is pipetted onto a glazed tile and after evaporation of the acetone, adult flies of the species Musca domestica strain WHO-N are placed onto the dried surface. The exposure time is 30 minutes.
as §3

[11] = tested on: green peach aphid (Myzus persicae); test: Myzus persicae spray test; details: foliar, 120 h, Chinese cabbage leaf disks, after 5 days
Procedure, shortened: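 Percent mortality read 5 days after spraying, where 100% is total kill and 0% none. The spray contained compound in acetone plus dimethylformamide, diluted with 1000 ppm emulsifier water. It was applied to Brassica pekinensis leaf disks carrying mixed-instar green peach aphids.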

[12] = tested on: larvae of the southern green stink bug (Nezara viridula); test: Nezara viridula spray test; details: in Hordeum vulgare, 96 h
Procedure, shortened: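 Mortality (%) of stink bug larvae on treated barley (Hordeum vulgare) was scored 4 days after infestation. Test solutions came from an acetone/DMF concentrate diluted with water containing 1000 ppm emulsifier and were sprayed onto plants before larvae were added.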

Compound	mortality at 100 g/ha [1]	mortality at 4 ppm [2]	mortality at 100 ppm [3]	pest or weed control at 5 µg/cm2 [4]	pest or weed control at 5 µg/cm2, 500 g/ha [5]	pest or weed control at 0.004 mg [6]	pest or weed control at 32 µg/disc, 100 g/ha [7]	efficacy (fleas dead or moribund) [8]	mortality at 4 mg/m2 [9]	mortality at 20 mg/m2 [9]	mortality at 20 mg/m2 [10]	mortality at 4 mg/m2 [10]	mortality at 100 g/ha [11]	mortality at 500 g/ha [12]	mortality at 100 g/ha [12]
COCCN(C)C(=O)c1cnc(-n2nc(C)nc2[C@H](C)NC(=O)c2cc(C(F)(F)F)cc(C(F)(F)F)c2)s1 [I-3]	100%	90%	80%	100%	100%	100%	–	–	–	–	–	–	–	–	–
Cc1nc([C@H](C)NC(=O)c2cc(Cl)cc(Br)c2)n(-c2ncc(C#N)s2)n1 [I-12]	100%	–	100%	100%	100%	100%	100%	–	–	–	–	–	–	–	–
Cc1nc([C@H](C)NC(=O)c2cc(Br)cc(Br)c2)n(-c2ncc(C#N)s2)n1 [I-13]	83%	–	100%	100%	100%	100%	100%	–	–	–	–	–	–	–	–
Cc1nc([C@H](C)NC(=O)c2cc(Cl)cc(C(F)(F)C(F)(F)F)c2)n(-c2ncc(C#N)s2)n1 [I-19]	100%	–	100%	100%	80%	100%	100%	–	–	–	–	–	–	–	–
Cc1nc([C@H](C)NC(=O)c2cc(Cl)nc(C(F)(F)F)c2)n(-c2ncc(C#N)s2)n1 [I-20, 2-chloro-N-{(1S)-1-[1-(5-cyano-1,3-thiazol-2-yl)-3-methyl-1H-1,2,4-triazol-5-yl]ethyl}-6-(trifluoromethyl)isonicotinamide]	–	–	100%	100%	100%	100%	100%	–	–	–	–	–	–	–	–
CC(NC(=O)c1cc(C(F)F)cc(C(F)F)c1)c1ncnn1-c1ncc(C#N)s1 (stereo not shown) [I-33]	100%	100%	100%	90%	–	100%	100%	80%	80 to 100%	80 to 100%	80 to 100%	–	–	–	–
C[C@H](NC(=O)c1cc(Br)cc(OC(F)F)c1)c1ncnn1-c1ncc(C#N)s1 [I-39]	100%	100%	100%	90%	–	100%	100%	80%	–	80 to 100%	80 to 100%	90 to 100%	–	–	–
C[C@H](NC(=O)c1cc(Br)cc(C(C)(F)F)c1)c1ncnn1-c1ncc(C#N)s1 [I-47]	100%	–	–	90%	–	–	100%	–	80 to 100%	80 to 100%	80 to 100%	90 to 100%	90%	–	–
C[C@H](NC(=O)c1cc(Cl)cc(C2(C#N)CC2)c1)c1ncnn1-c1ncc(C#N)s1 [I-52]	100%	–	–	–	–	–	100%	–	–	80 to 100%	80 to 100%	90 to 100%	100%	100%	–
Cc1nc([C@H](C)NC(=O)c2cc(C(F)(F)F)cc(C(F)(F)F)c2)n(-c2ncc(C#N)s2)n1 [I-90]	100%	–	–	–	–	–	100%	–	80 to 100%	–	80 to 100%	90 to 100%	90%	–	–
C[C@H](NC(=O)c1cc(Br)cc(C(C)(C)F)c1)c1ncnn1-c1ncc(C#N)s1 [I-99]	100%	–	–	–	–	–	100%	–	80 to 100%	80 to 100%	80 to 100%	90 to 100%	100%	100%	100%
